A short description of data set [1]: Drug concentration in Sprague-Dawley rat plasma at 15 mg/kg, po measured after 2 hrs by LC-MS analysis. Type of data set: ADME, organism-based.
A short description of data set [2]: Toxicity in male BALB/c nude mouse histological abnormality in liver at 15 to 30 mg/kg, po measured after 28 days by H and E staining based analysis. It is filed as organism-based. The settings on record: in vivo, 672 h, dose 15-30 mg/kg, time 28 day.
In data set [3] the test system is MIA PaCa-2. Kind of data set: Induction of apoptosis in human MIA PaCa-2 cells assessed as necrotic cells at 500 nM measured after 72 hrs by Annexin V-FITC/propidium iodide staining based flow cytometric analysis (reference value: 0.38%). Type of data set: functional.
The nature of data set [4]: Acute toxicity in female BALB/c mouse assessed as effect on body weight at 200 mg/kg administered via oral gavage measured upto 7 days. Type of data set: organism-based. To be noted: in vivo, 168 h, time < 7 day.
In another data set the test system is HL-60. To be noted: Homo sapiens, dose 100-500 nM, time 48.0 hrs.
For data set [5], the system named is MIA PaCa-2. The settings on record: Homo sapiens, dose 50.0 nM, time 72.0 hrs.
Data set [6] has as its system MIA PaCa-2. The experiment in a line: Induction of apoptosis in human MIA PaCa-2 cells overexpressing MTS-ClpP-OE assessed as early apoptotic cells at 100 nM measured after 72 hrs by Annexin V-FITC/propidium iodide staining based flow cytometric analysis (reference value: 3.38%). Type of data set: functional.
Data set [7] in a line: Toxicity in male BALB/c nude mouse histological abnormality in heart at 15 to 30 mg/kg, po measured after 28 days by H and E staining based analysis. It is filed as organism-based. To be noted: in vivo, 672 h, dose 15-30 mg/kg, time 28 day.
Data set [8] concerns MIA PaCa-2. The experiment in a line: Induction of apoptosis in human MIA PaCa-2 cells overexpressing MTS-ClpP-OE assessed as viable cells at 100 nM measured after 72 hrs by Annexin V-FITC/propidium iodide staining based flow cytometric analysis (reference value: 83.7%). Type of data set: functional. To be noted: read-out: Activity. (In general: In flow cytometry, cells or beads pass a laser one at a time.)

Data set [9] can be described thus: Tmax in Sprague-Dawley rat at 15 mg/kg, po measured upto 1440 mins by LC-MS analysis. It is filed as ADME, organism-based. The settings on record: in vivo.
For the next data set, the system named is HCT-116. The settings on record: Homo sapiens, dose 100-500 nM, time 48.0 hrs.
A short description of data set [10]: Metabolic stability in human liver microsomes assessed as intrinsic clearance at 1.0 uM measured upto 120 mins in presence of NADPH by LC/MS analysis. It is filed as ADME, Microsome. The settings on record: read-out: CLH. For orientation: Microsomes from liver hold many membrane-bound enzymes, among them those of drug oxidation.
The test system of data set [11] is MIA PaCa-2. The experiment in a line: Induction of apoptosis in human MIA PaCa-2 cells transfected with empty vector assessed as late apoptotic cells at 100 nM measured after 72 hrs by Annexin V-FITC/propidium iodide staining based flow cytometric analysis (reference value: 2.81%). It is filed as functional.
The subject of data set [12] is MIA PaCa-2. The experiment in a line: Induction of apoptosis in human MIA PaCa-2 cells transfected with empty vector assessed as necrotic cells at 100 nM measured after 72 hrs by Annexin V-FITC/propidium iodide staining based flow cytometric analysis (reference value: 1.18%). Type of data set: functional.
Data set [13] deals with MIA PaCa-2. The experiment in a line: Induction of apoptosis in human MIA PaCa-2 cells assessed as necrotic cells at 100 nM measured after 72 hrs by Annexin V-FITC/propidium iodide staining based flow cytometric analysis (reference value: 0.38%). It is filed as functional.

Active and inactive are the calls of the source. No cut-off for these calls is given here.

As usually defined, the Tmax is the time at which the peak concentration occurs.

Description for HCT-116: Inhibition of AKT phosphorylation level at Ser473 residues in human HCT-116 cells at 100 to 500 nM measured after 48 hrs by Western blot analysis
Description for HL-60: Inhibition of ERK phosphorylation level at Thr202/Tyr204 residues in human HL-60 cells at 100 to 500 nM measured after 48 hrs by Western blot analysis

Consider `O=c1c2c(n3ccnc3n1Cc1ccc(C(F)(F)F)cc1)CCN(Cc1cccc(Cl)c1)C2`, for which the concentration at 2 h in [1] was determined as 1340 ng/mL. The Activity entry was “Non-Toxic” in data set [2]; 0.52% in the data set with MIA PaCa-2 [3]; “Non-Toxic” in [4]; 21.8% in the data set on MIA PaCa-2 [6]; “Non-Toxic” in [7]; 3.74% with MIA PaCa-2 [11]. Besides, the results for the Activity in the data set with MIA PaCa-2 [12] and in the data set on MIA PaCa-2 [13] were 0.61% and 0.22%, respectively. Also, the inhibition result in the data set on HL-60, in the data set with MIA PaCa-2 [5] and in the data set with HCT-116 was “Active” each time. Also, the viability at 0.1 µM in the data set on MIA PaCa-2 [8] is 33.8%. The Tmax in [9] was 1.29 h. Further, in data set [10], the CLint scaled at 1 µM was 144 mL/min/kg.

The values above are taken from ChEMBL document CHEMBL5584344, “Discovery of Dehydrogenated Imipridone Derivatives as Activators of Human Caseinolytic Protease P” (J Med Chem, 2024).
